# According to patent US20250073209A1, “COVALENT TARGETING OF RhoA FOR CANCER THERAPY” (The University of Hong Kong, priority 2023, published 2025):
# What was measured:
# FLAG-RhoA = molecular target: T1, FLAG-RhoA (Homo sapiens, UniProt P61586); assay: CL16-alkyne labeling of FLAG-RhoA in HCT116 cells (anti-FLAG IP, CuAAC, in-gel fluorescence); type: cell-based; settings: after immunoprecipitation and CuAAC
# T1 construct: expressed in transfected cells; host or cells: HCT116
# Protocol: HCT116 cells transiently expressing FLAG-RhoA were pre-treated with solvent vehicle or CL16 for 2 h, followed by the incubation with CL16-alkyne in complete medium for another 2 h. The cells were then lysed and subjected to immunoprecipitation by anti-FLAG beads. The enriched proteins were reacted with rhodamine azide through copper-catalyzed azide-alkyne cycloaddition (CuAAC), boiled with sampling buffer and separated by SDS-PAGE. The protein bands were then visualized by their in-gel fluorescence or blotted for RhoA. […] HCT116 cells were pre-treated with solvent vehicle or CL16 for 2 h, followed by the incubation with CL16-alkyne in complete medium for another 2 h. The cells were then lysed, reacted with rhodamine azide through CuAAC, boiled with sampling buffer, separated by SDS-PAGE and imaged. […]
# To identify protein target and any off-targets of CL16 in CRCs, a molecular probe of CL16, CL16-alkyne (FIG. 6A), was synthesized. […] The protein bands were then visualized by their in-gel fluorescence or blotted for RhoA. […] The probe-labeled proteins were installed with rhodamine through CuAAC, and visualized by their in-gel fluorescence after SDS-PAGE. A protein band with strong fluorescence was found at −22 kDa in the sample incubated with CL16-alkyne only, in line with the molecular weight of RhoA (FIG. 6C).
# [1] = reported studies; cited from earlier work
# Cdc42 = Cdc42 (Homo sapiens, UniProt P60953); assay: Cdc42-GTP PAK-PBD pull-down in HT29 cells; type: cell-based; parameters: endogenous in cells; host or cells: HT29; settings: HT29, 30 μM (working concentration for RhoA inhibition)
# Sequence of Cdc42 (P60953 whole entry): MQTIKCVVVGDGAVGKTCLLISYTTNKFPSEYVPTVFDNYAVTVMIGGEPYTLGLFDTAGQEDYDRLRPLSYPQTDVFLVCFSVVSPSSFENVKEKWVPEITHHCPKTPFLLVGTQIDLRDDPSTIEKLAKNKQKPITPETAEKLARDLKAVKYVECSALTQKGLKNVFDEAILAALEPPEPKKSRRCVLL
# Excerpt: The procedure is similar to that for RhoA-GTP assay, except that Rac1-GTP and Cdc42-GTP in CRC cells were first enriched by Rac1 Pull-Down Activation Assay Biochem Kit (Cytoskeleton #BK035) instead of using the RhoA kit. The enriched Rac1-GTP and Cdc42-GTP were then immunoblotted by Rac1/2/3 antibody (CST #2465) and Cdc42 antibody (CST #2462) respectively.
# GTP loading onto RhoA is critical for the protein activation and mediating downstream signals. In view of the inhibitions of GDP-to-GTP exchange of RhoA by CL16 in vitro as discussed above, effects of CL16 on RhoA biology in colorectal cancer cells were examined. In the serum starvation-re-stimulation experiment, HCT116 cells were grown in serum-free medium with CL16, Rhosin or solvent control for 24 h, followed by stimulation with 10% FBS for 10 min. The cells were then lysed and the RhoA activity was assayed by the level of RhoA-GTP, which is the active form of RhoA. […] HT29 cells were incubated with solvent vehicle, CL16 or Rhosin in complete medium for 24 h. The cells were then washed, lysed and subjected to rhotekin pull-down for blotting RhoA-GTP, or PAK-PBD pull-down for blotting Rac1-GTP and Cdc42-GTP. Confocal fluorescence images from HCT116 and HT29 cells expressing FRET RhoA-biosensor in the serum starvation-restimulation experiment were taken.
# T1 sequence (P61586 whole entry): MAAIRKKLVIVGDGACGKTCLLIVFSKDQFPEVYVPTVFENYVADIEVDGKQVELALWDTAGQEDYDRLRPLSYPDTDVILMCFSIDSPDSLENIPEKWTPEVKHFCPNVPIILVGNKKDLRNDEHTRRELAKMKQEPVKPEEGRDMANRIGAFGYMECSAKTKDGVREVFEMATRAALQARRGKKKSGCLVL
Cdc42 activity (Cdc42-GTP) (Cdc42),Structure (SMILES),probe labeling of FLAG-RhoA (in-gel fluorescence) (FLAG-RhoA),working concentration (anticancer efficacy) [1]
,C#CCOc1cccc2oc(C3=NN(C(=O)CCl)C(c4ccco4)C3)cc12 (stereo not drawn) [CL16-alkyne],strong fluorescence from FLAG-RhoA protein,
inhibited Cdc42,"N[C@H](Cc1c[nH]c2ccccc12)C(=O)N/N=C/c1ccc2nccnc2c1 [Rhosin, reference compound]",,≥ 30 µM
